As usually defined, the viability is a read-out of living cells in per cent, often relative to untreated cells.

Structures are written as SMILES.

In article PMC12040169 (PLOS Biology, 2025) one finds viability data, which are given here for 76 molecules.

One series is described as follows: in vitro. The settings on record: human, hela cells, % viability.
Regarding `COc1ccc(OC)c(C(O)c2nc3ccccc3n2C(C)C)c1` (stereo not shown) [CBK263474], the viability at 28.5 h, 10 µM was found to be 92.7%.

Consider `COc1cc(CN2CCN(C(=O)c3cccc4ccccc34)CC2)cc(OC)c1O` [CBK263477], for which the viability at 28.5 h, 10 µM is 103%.

With `Cc1cc(-c2ccccc2)nn1C(CC(=O)O)C(=O)O` (stereo not shown) [CBK263480], the viability at 28.5 h, 10 µM was found to be 91.6%.

As to `N=c1n(CCN2CCCCC2)c2ccccc2n1CC(=O)c1cccc([N+](=O)[O-])c1` [CBK263481B], the viability at 28.5 h, 10 µM came out at 103%.

On to `CC1=NN(c2ccc(S(N)(=O)=O)cc2)C(=O)/C1=C\c1ccc(-c2cccc(C(=O)O)c2)o1` [CBK263483], for which the viability at 28.5 h, 10 µM is 98%.

With `COc1ccccc1C(=O)N1CCN(Cc2cc(OC)c(O)c(OC)c2)CC1` [CBK263484], the viability at 28.5 h, 10 µM is 101%.

Consider `COc1cc(/C=N/NC(=O)CCNc2n[nH]c(=O)[nH]c2=O)cc(Br)c1O` [CBK263494], for which the viability at 28.5 h, 10 µM turned out to be 88.3%.

Regarding `O=C(O)C(Cc1ccccc1)N1C(=O)/C(=C/C=C/c2ccccc2)SC1=S` (stereo not shown) [CBK263496], the viability at 28.5 h, 10 µM is 99.6%.

Regarding `Cc1ccc(C2=NN(C(=N)SC3CC(=O)N(c4ccc(C(=O)O)cc4)C3=O)C(c3ccc(Br)cc3)C2)cc1` (stereo not shown) [CBK263497], the viability at 28.5 h, 10 µM worked out at 112%.

As to `CCOC(=O)c1c(C)n(-c2ccc(C)cc2)c2ccc(O)c(CN(C)C)c12` [CBK263499C], the viability at 28.5 h, 10 µM was determined as 78.5%.

Take `O=C(Nc1ccc(S(=O)(=O)Nc2nccc(/C=C/c3ccc(Cl)cc3)n2)cc1)c1ccc(Br)cc1` [CBK263500]: the viability at 28.5 h, 10 µM is 103%.

For `COC(=O)c1c(NC(=S)Nc2ccccc2)sc(Cc2ccccc2)c1C` [CBK263501], the viability at 28.5 h, 10 µM amounted to 90.6%.

For the molecule `COc1ccc(-n2c(C)c([N+](=O)[O-])c3ccc(O)c(CNCCCO)c32)cc1` [CBK263504C], the viability at 28.5 h, 10 µM turned out to be 88.4%.

With `CN(C)CCNC(=O)NC(c1ccccc1)c1ccccc1` [CBK263505C], the viability at 28.5 h, 10 µM amounted to 104%.

With `Cc1cc(Br)c(NCC(=O)N/N=C/c2ccc(O)cc2)c(Br)c1` [CBK263506], the viability at 28.5 h, 10 µM is 101%.

As for `CC1(C)OC(=O)C(=CNC(CCC(=O)O)C(=O)O)C(=O)O1` (stereo not shown) [CBK263510], the viability at 28.5 h, 10 µM amounted to 97.3%.

For `O=C(NCCN1CCCC1=O)Nc1ccccc1` [CBK263517], the viability at 28.5 h, 10 µM turned out to be 116%.

Take `O=C(CCNc1n[nH]c(=O)[nH]c1=O)N/N=C/c1ccc(C(F)(F)F)cc1` [CBK263518]: the viability at 28.5 h, 10 µM amounted to 87.7%.

Turning to `O=C(CNC(=O)c1cccc(F)c1)N/N=C1/C(=O)N(Cc2ccc3c(c2)OCO3)c2ccccc21` [CBK263519], the viability at 28.5 h, 10 µM is 102%.

With `O=C(NCCO)c1ccc(CSc2nc3sc4c(c3c(=O)[nH]2)CCCC4)cc1` [CBK263522], the viability at 28.5 h, 10 µM stood at 96.6%.

As for `O=C(O)C(Cc1ccccc1)N1C(=O)/C(=C/C(Cl)=C/c2ccc([N+](=O)[O-])cc2)SC1=S` (stereo not shown) [CBK263523], the viability at 28.5 h, 10 µM is 95.4%.

Turning to `CC(/C=C1\SC(=S)N(C(Cc2ccccc2)C(=O)O)C1=O)=C\c1ccccc1` (stereo not shown) [CBK263524], the viability at 28.5 h, 10 µM worked out at 91.7%.

As to `O=C(Cc1n[nH]c(=O)[nH]c1=O)N/N=C/c1ccc(C(=O)O)cc1` [CBK263525], the viability at 28.5 h, 10 µM was 99.5%.

Consider `O=C1C2CCCCC2C(=O)N1c1ccc(Oc2ccc(Br)cc2)cc1` (stereo not shown) [CBK263531], for which the viability at 28.5 h, 10 µM amounted to 116%.

Take `COc1ccc(N2C(=O)c3ccc(C(=O)OCC(=O)c4ccc(-c5ccccc5)cc4)cc3C2=O)cc1` [CBK263532]: the viability at 28.5 h, 10 µM is 95.8%.

On to `CCCc1c(C)nc2ccc(C)cc2c1SCC(=O)O` [CBK263537], for which the viability at 28.5 h, 10 µM is 88.6%.

As for `O=C(NCCNc1ccc([N+](=O)[O-])cc1Cl)c1ccccc1Cl` [CBK263541], the viability at 28.5 h, 10 µM came out at 112%.

Consider `O=C(NCCCn1ccnc1)c1cc2c(ccc3ccccc32)oc1=O` [CBK263543], for which the viability at 28.5 h, 10 µM is 86%.

Take `COc1ccc(C(CC(=O)O)CC(=O)O)cc1OC` [CBK263545]: the viability at 28.5 h, 10 µM stood at 91.9%.

In the case of `O=C(O)Cn1c(=O)n(CC(=O)O)c2ccccc21` [CBK263550], the viability at 28.5 h, 10 µM was found to be 83%.

For the molecule `O=[N+]([O-])c1ccccc1NCCNS(=O)(=O)c1ccccc1` [CBK263552], the viability at 28.5 h, 10 µM came out at 89%.

In the case of `CCc1c(C)nc2c(C)cccc2c1SCC(=O)O` [CBK263554], the viability at 28.5 h, 10 µM stood at 87.6%.

As for `Cc1oc(C(=O)O)cc1CSC(C)C(=O)O` (stereo not shown) [CBK263556], the viability at 28.5 h, 10 µM amounted to 93.8%.

On to `O=C(NCC1CCCO1)C(=O)Nc1ccccc1F` (stereo not shown) [CBK263557], for which the viability at 28.5 h, 10 µM turned out to be 90.5%.

`O=C(CSc1nnc(-c2ccc3c(c2)OCO3)n1-c1ccccc1)c1ccc(Cl)cc1` [CBK263559]: the viability at 28.5 h, 10 µM was found to be 100%.

Take `O=C(O)c1ccc(/C=N/N2CCN(Cc3ccc(Cl)cc3)CC2)cc1` [CBK263561]: the viability at 28.5 h, 10 µM stood at 90.5%.

As for `CC(=O)Nc1ccc(S(=O)(=O)NCCSc2ccc(C)cc2)cc1` [CBK263563], the viability at 28.5 h, 10 µM was determined as 111%.

With `COc1ccc(/C=C/C(=O)O)cc1S(=O)(=O)N1CCCCCC1` [CBK263565], the viability at 28.5 h, 10 µM was determined as 87.8%.

Turning to `O=C(O)CCCC(=O)Nc1ccc(O)cc1` [CBK263567], the viability at 28.5 h, 10 µM came out at 90.9%.

With `O=C(O)c1ccc(/C=N/NC(=O)c2ccco2)cc1` [CBK263569], the viability at 28.5 h, 10 µM turned out to be 90.5%.

Regarding `Cc1cccc(N(CC(=O)NCc2ccco2)S(=O)(=O)c2ccccc2)c1` [CBK263571], the viability at 28.5 h, 10 µM was found to be 87.7%.

Turning to `C/C(=N\N1CCN(Cc2cccc3ccccc23)CC1)c1ccncc1` [CBK263574], the viability at 28.5 h, 10 µM was found to be 98.9%.

For `O=C(NC(=S)N1CCN(CCN2C(=O)c3cccc4cccc(c34)C2=O)CC1)c1ccc2c(c1)OCO2` [CBK263577], the viability at 28.5 h, 10 µM came to 82.2%.

For `Cc1cccc(N(CC(O)CN2C(=O)NC(C)(C)C2=O)S(=O)(=O)c2ccccc2)c1` (stereo not shown) [CBK263582], the viability at 28.5 h, 10 µM worked out at 103%.

In the case of `N=c1sc(Cc2cc(Cl)ccc2Cl)cn1CC(=O)c1ccccc1` [CBK263584B], the viability at 28.5 h, 10 µM worked out at 89.6%.

For `COc1ccc(N(CC(O)CN2CCOCC2)S(=O)(=O)c2ccccc2)cc1` (stereo not shown) [CBK263589], the viability at 28.5 h, 10 µM was 84.5%.

`Cc1ccc(C2(c3ccc(C)cc3)CC2C(=O)Nc2ccccc2[N+](=O)[O-])cc1` (stereo not shown) [CBK263591]: the viability at 28.5 h, 10 µM is 93.3%.

For `COc1ccc(C(=O)CSc2nnc(-c3ccc4c(c3)OCO4)n2-c2ccccc2)cc1` [CBK263592], the viability at 28.5 h, 10 µM was 80.7%.

For `O=[N+]([O-])c1ccc(NCCNC(=S)Nc2ccc(Cl)cc2)nc1` [CBK263594], the viability at 28.5 h, 10 µM is 85.8%.

As to `Cc1ccc(OCC(=O)NCCCN(C)C)cc1` [CBK263595], the viability at 28.5 h, 10 µM came to 98.3%.

Consider `C/C(=N\NS(=O)(=O)c1ccc(C)cc1)C(C)(C)CC(=O)O` [CBK263601], for which the viability at 28.5 h, 10 µM was determined as 102%.

`N=C1NC(=O)/C(=C/c2ccc(OC(=O)c3cccc([N+](=O)[O-])c3)cc2)S1` [CBK263606]: the viability at 28.5 h, 10 µM was 100%.

Regarding `COc1ccc(NC(=O)/C(=C\c2ccc3c(c2)OCO3)NC(=O)c2ccco2)cc1` [CBK263607], the viability at 28.5 h, 10 µM was 86.3%.

Consider `O=C(Cc1ccccc1)Nc1ccc(Oc2ccc(C(=O)O)c(C(=O)O)c2)cc1` [CBK263611], for which the viability at 28.5 h, 10 µM amounted to 90.3%.

In the case of `Cc1cc(C(=O)Nc2ccccc2C(=O)O)ccc1NC(=O)CC(C)C` [CBK263616], the viability at 28.5 h, 10 µM worked out at 101%.

Take `COc1ccc(CCNS(=O)(=O)c2cccc([N+](=O)[O-])c2)cc1OC` [CBK263618]: the viability at 28.5 h, 10 µM came to 89.5%.

Regarding `Cc1cccc(NC2=NC(=O)/C(=C\c3ccc(Cl)cc3)S2)c1C` [CBK263619], the viability at 28.5 h, 10 µM worked out at 101%.

As for `CS(=O)(=O)N1CCN(Cc2cc(Br)ccc2O)CC1` [CBK263620G], the viability at 28.5 h, 10 µM worked out at 93.9%.

`COc1ccc(OC(C)C(=O)Nc2ccc(C(=O)O)cc2)cc1` (stereo not shown) [CBK263622]: the viability at 28.5 h, 10 µM was 101%.

As to `NS(=O)(=O)c1cccc(NC(=O)COc2ccc([N+](=O)[O-])cc2)c1` [CBK263624], the viability at 28.5 h, 10 µM was 92.2%.

Regarding `COc1ccc(C(=O)NCc2ccc(S(N)(=O)=O)cc2)cc1[N+](=O)[O-]` [CBK263629], the viability at 28.5 h, 10 µM was 105%.

On to `COc1cc(/C=N\NC(=O)CSc2nc3ccccc3o2)ccc1O` [CBK263630], for which the viability at 28.5 h, 10 µM amounted to 86.5%.

Consider `NNC(=O)CCc1nc2ccc(O)cc2[nH]1` [CBK263633], for which the viability at 28.5 h, 10 µM was 93%.

On to `Cc1ccc2nc(Nc3nc(C)cc(C)n3)[nH]c2c1` [CBK263634], for which the viability at 28.5 h, 10 µM turned out to be 97.9%.

As for `COc1ccc(-c2cc(C(=O)Nc3ccc(S(N)(=O)=O)cc3)c3ccccc3n2)cc1OC` [CBK263635], the viability at 28.5 h, 10 µM was 93.1%.

Consider `CCc1cccc(NC(=O)CCc2ccccc2)c1` [CBK263637], for which the viability at 28.5 h, 10 µM was determined as 112%.

With `CN(C)S(=O)(=O)N1CCN(Cc2ccccc2)CC1` [CBK263638], the viability at 28.5 h, 10 µM is 109%.

In the case of `COC(=O)c1ccccc1NC(=O)c1c(C)c(-c2ccc(C)cc2)nc2ccccc12` [CBK263641], the viability at 28.5 h, 10 µM is 94.9%.

Consider `CC(=O)Nc1ccc(C(=O)NCc2ccc(S(N)(=O)=O)cc2)cc1` [CBK263642], for which the viability at 28.5 h, 10 µM stood at 105%.

Take `O=C(CCN1C(=O)/C(=C\c2cccs2)SC1=S)Nc1cc(Cl)ccc1O` [CBK263643]: the viability at 28.5 h, 10 µM worked out at 98.2%.

In the case of `N#C/C(=C\c1ccccc1O)C(=O)Nc1sc2c(c1C(N)=O)CCCC2` [CBK263644], the viability at 28.5 h, 10 µM was found to be 101%.

The series is the same for the next values; noted with them: human, hela cells, % viability, bulk resorufin, single well.
For the molecule `COc1cc(C=C2C(=O)NC(=S)NC2=O)cc(Br)c1OCc1c(C)no[n+]1[O-]` [CBK263475], the viability at 28.5 h, 10 µM was determined as 98.9%.

For the molecule `CCOc1ccc(N2C(=O)NC(=O)/C(=C/c3cn(CC(=O)Nc4ccccc4)c4ccccc34)C2=O)cc1` [CBK263544], the viability at 28.5 h, 10 µM came out at 90.2%.

On to `COc1ccc(N2C(=O)NC(=O)/C(=C/c3cn(CC(=O)Nc4ccccc4)c4ccccc34)C2=O)cc1` [CBK263547], for which the viability at 28.5 h, 10 µM was found to be 110%.

On to `CCc1cc(C)cc(OCCOc2ccccc2C=C2C(=O)NC(=S)NC2=O)c1` [CBK263579], for which the viability at 28.5 h, 10 µM amounted to 120%.

`O=C1NC(=O)C(=Cc2ccccc2OS(=O)(=O)c2ccc3ccccc3c2)C(=O)N1` [CBK263599]: the viability at 28.5 h, 10 µM was determined as 64%.
